# Measured values taken from patent US20240050408A1, “USE OF MGLUR5 ANTAGONISTS FOR TREATING AMPHETAMINE ADDICTION” (NOVARTIS AG, priority 2020, published 2024).
# Key:
# Type in all cases: in vivo, human
# [1] = test system: patients with Cocaine Use Disorder (CUD); assay: Phase 2 trial: proportion of cocaine use days by TLFB self-report; conditions: for difference between groups in monthly proportion of cocaine use: MMRM
# Method: This was a Phase 2 randomized, patient- and investigator-blinded, placebo-controlled, parallel-group study.
# Patients diagnosed with Cocaine Use Disorder (CUD) according to Diagnostic and Statistical Manual of Mental Disorders, 5th Ed.
# (§1) This study was conducted in patients with CUD and consisted of about a 21-day screening period followed by a 7-day baseline period, a 98-day outpatient treatment period, and an end of study visit evaluation about 14 days after the last study drug administration ([…]. A). Study treatment was taken twice daily (separated by about 12-hour intervals) with food. For patients in the mavoglurant arm [mavoglurant (free form) provided as modified release formulation (e.g. in WO2014/199316)], an uptitration regimen was performed for 14 days (50 mg b.i.d. from Days 1 to 7 and 100 mg b.i.d from Days 8 to 14) and was followed by 200 mg b.i.d for 84 days.
# The primary endpoint was the proportion of cocaine use days during the treatment period, assessed by timeline followback [TLFB] cocaine self-report report. The secondary endpoints included a weekly urine analysis for a log-transformed quantitative measure of cocaine metabolite benzoylecgonine (BE), safety assessments (clinical parameters, suicidal ideation, adverse events [AE] and serious adverse events [SAE] at every visit), and pre- and post-dose levels of mavoglurant in the plasma. Exploratory endpoints included Clinical Global Impression (CGI; 2 components: CGI-S [rated illness severity], CGI-I [rated change from baseline]).
# For the primary endpoint, a Bayesian analysis was conducted on the proportion of cocaine use days. It was assumed to be a continuous outcome with a normal distribution. The proportion of cocaine use days over the treatment period was analyzed using an analysis of covariance (ANCOVA) model with baseline use as a covariate. The profiles of consumption over time were compared between treatment groups through analyses of longitudinal data (weekly use and monthly use) using linear mixed model for repeated measures (MMRM). The model evaluated the posterior probability that the difference in proportions of cocaine use days between mavoglurant and placebo was <0 and that it was <−10%. A difference of 10% of days was deemed the minimal clinically relevant effect and a difference of 20% would be a very promising effect based on the literature in this indication. The study was deemed to show a positive signal of efficacy if the following two proof of concept (PoC) criteria were met:
# The primary endpoint was the proportion of cocaine use days by TLFB during the treatment period (Day 1 to last day of treatment). For each subject, the proportion of cocaine use days was calculated by dividing the number of days of cocaine use during the treatment period with the treatment period, i.e., 98 days for completers and number of days between Day 1 and day of last dose in case of premature discontinuation of study treatment. Cocaine consumption was recorded daily (Yes/No) using the TLFB during the entire study.
# Patient Reported Outcome included: • 1. The TLFB cocaine: is a cocaine assessment method that obtains estimates of daily cocaine intake and has been evaluated with clinical and nonclinical populations. Using a calendar, people provide retrospective estimates of their daily cocaine use over a specified time period that can vary up to 12 months from the interview date. Several memory aids can be used to enhance recall (e.g., calendar; key dates serve as anchors for reporting cocaine use). […] The method is recommended for use when relatively precise estimates of cocaine use are necessary, especially when a complete use pre-posttreatment). Clinically, the TLFB can be used to provide feedback about one's cocaine consumption in an effort to increase a client's motivation to change. • 2. […]
# [2] = test system: patients with Cocaine Use Disorder (CUD); assay: Phase 2 trial: abstinence in the last weeks of treatment (TLFB and negative urine BE); conditions: self-report (TLFB) and negative urine BE; placebo 16.7%; P=0.040
# Method: as §1
# A subject was considered abstinent the last x weeks of treatment if they completed the 14-week treatment period and were abstinent the last x weeks (with x=1, 2, 3. . . . , 14).
# A subject was considered abstinent the last x weeks of treatment if they completed the 14-week treatment period and were abstinent the last x weeks (with x=1, 2, 3. . . . , 14). […] Binary response variables based on abstinence were calculated.
# This analysis was added in order to inform on abstinence rates as this is an important endpoint in Phase III CUD studies. Binary response variables based on abstinence were calculated.
# [3] = test system: patients with Cocaine Use Disorder (CUD); assay: Phase 2 trial: hair analysis; conditions: end of study vs baseline; compared to placebo
# Method: Hair analysis was used as an adjunct to urine samples collection and helps document drug use history. Hair specimens were collected and at baseline and at the end of the study. Patients with hair shorter than 3 cm or bleached and/or dyed hair (proximal 4 cm) were excluded from this assessment. If only the tip of long hairs were bleached, samples were collected.
# The quantitative measures were log-transformed and individual ratio between end of study and baseline was calculated and listed by treatment, subject and visit/time. The log-transformed data profiles over time were explored, compared between treatment groups and the relationship between cocaine and alcohol measures in hair, in urine and timeline follow-back was assessed.
# Summary statistics were provided by treatment and visit/time. Heatmaps to visualize the trend in the log-transformed quantitative measures were created. To explore the relationship between the log-transformed quantitative measures of the compounds being assayed and the timeline follow-back cocaine and alcohol measures, scatterplots were created for the end of study results. […]
# To ensure that the hair analysis quantitative parameters only had numerical values, censored values were imputed as follows • Values below the LLOQ were replaced by LLOQ/2. • Values above the ULOQ were replaced by ULOQ.
structure (smiles),measurement,setting,value
"COC(=O)N1CC[C@@H]2[C@H]1CCC[C@@]2(O)C#Cc1cccc(C)c1 [mavoglurant, (-)-(3aR,4S,7aR)-4-Hydroxy-4-m-tolylethynyl-octahydro-indole-1-carboxylic acid methyl ester]","cocaine use by TLFB, difference mavoglurant-placebo (result in words)","[1]; 98-day administration, P=0.021, listed as Mavoglurant",reduced cocaine consumption significantly
same,"P(θmavoglurant−θplacebo<0|data), PoC criterion 1","[1]; Bayesian analysis over the treatment period (14 weeks), criterion met (P>0.90)",0.999
same,"P(θmavoglurant−θplacebo<−10%|data), PoC criterion 2","[1]; Bayesian analysis over the treatment period (14 weeks), criterion not met (P<0.50)",0.366
same,difference between groups in monthly proportion of cocaine use,"[1]; Month 2, P=0.042",8%
same,difference between groups in monthly proportion of cocaine use,"[1]; Month 3, P=0.003",14%
same,"posterior probability in reducing cocaine use, treatments difference <0","[1]; cocaine TLFB, 98-day administration (50/100 mg b.i.d. uptitration, then 200 mg b.i.d. 84 days, modified release), mavoglurant vs placebo, Bayesian analysis",99.0%
same,"posterior probability in reducing cocaine use, treatments difference <−10%","[1]; cocaine TLFB, 98-day administration, mavoglurant vs placebo, Bayesian analysis",36.6%
same,difference between groups in proportion of cocaine use days,"[1]; over the treatment period (14 weeks), mavoglurant vs placebo",8.7%
same,observed difference between mavoglurant and placebo in proportion of cocaine use days,"[1]; over the treatment period, FIG. 2B",−0.087
same,proportion of patients with cocaine abstinence in the last 3 weeks of the study,[2],41.4%
same,"hair analysis: cocaine and metabolite, change from baseline",[3],higher reductions from baseline as compared to placebo
